Measured values as given in article PMC9162962 (European Journal of Medicinal Chemistry, 2022).

Molecular target: SARS-CoV-2 M^pro (Severe acute respiratory syndrome coronavirus 2, UniProt P0DTD1)
Type: biochemical

NC(=S)N/N=C/c1ccc(-c2ccc(C(=O)O)c(O)c2)o1 [F8–B6, (E)-4-(5-((2-carbamothioylhydrazono)methyl)furan-2-yl)-2-hydroxybenzoic acid]
Effect of dithiothreitol (DTT) on inhibition: reverse the inhibitory effect
